≈ marks a conversion by molar mass, not a printed value.
Assays:
Assay type in all cases: functional
Candida albicans [1] = assay: Antifungal activity against Candida albicans in Sabouraud dextrose broth
Candida albicans [2] = assay: Antifungal activity against Candida albicans in RPMI medium
Aspergillus fumigatus = assay: Antifungal activity against Aspergillus fumigatus

| SMILES | MIC (Candida albicans [1]) | MIC (Candida albicans [2]) | IC90 (Aspergillus fumigatus) |
| --- | --- | --- | --- |
| CC/C=C/C=C/C=C/CCCCCCCC[C@]1(C)C[C@](C)(CC(=O)O)OO1 [PLAKINIC ACID F] | 25 µg/mL (≈ 66 µM) | 3.1 µg/mL (≈ 8.19 µM) | 25 µg/mL (≈ 66 µM) |
| CC/C=C/C=C/C=C/CCCCCCCC[C@@]1(C)C[C@](C)(CC(=O)O)OO1 [EPIPLAKINIC ACID F] | 25 µg/mL (≈ 66 µM) | 6.25 µg/mL (≈ 16.5 µM) | 25 µg/mL (≈ 66 µM) |
| C[C@@]1(CCCCCCCCCc2ccc(O)cc2)C[C@]2(C)OC(=O)C[C@@H]2OO1 [PLAKORTOLIDE F] | > 125 µg/mL | > 125 µg/mL | > 125 µg/mL |

Reference: ChEMBL document CHEMBL1155713, “Three new peroxides from the sponge Plakinastrella species” (2001)
